# According to patent US20110160296A1, “PREPARATION OF 6-OXA-8ALPHA-STEROID ESTROGEN ANALOGUES - A NEW GROUP OF UNNATURAL ESTROGENS AND THEIR USE IN MEDICINE” (TOPASS GMBH, priority 2007, published 2011):
# How the values were obtained:
# [1] = test system: ovariectomised rats, brain tissue; assay: Lipid peroxidation parameters in brain tissue of ovariectomised rats (antioxidant action); format: in vivo; details: per os in olive oil, single dose of 5 mg per 100 g of body weight the day before euthanasia
# Experimental: The experimental conditions: compound XVI was given per os in olive oil as a single dose of 5 mg per 100 g of body weight the day before euthanasia. […] Control group of animals were treated using olive oil without steroids.
# Schiff bases contain was calculated in conventional units according to fluorometric data; triene conjugates—in conventional units—according to the spectrophotometer data under wave-length 274 nm.
# [2] = test system: ovariectomised rats; assay: Effects on serum lipids and liver lipids of ovariectomised rats; format: in vivo, rats (Sprague Dawley)
# Experimental: (§1) The investigation of biological properties of steroids was carried out on sham operated and ovariectomized rats (Sprague Dawley) under the following conditions: compounds IV, XII, XIV and XV were given in olive oil, daily for 35 days.
# [3] = test system: ovariectomised rats; assay: Ovariectomized rat assay: body weight, uterus, femur, serum cholesterol and triglycerides; format: in vivo, rats (Sprague Dawley); details: n = 20
# Experimental: as §1
# [4] = test system: female mouse-hybrids F1CBAxC57BI6; assay: Influence on spleen, antibody-forming cells and thymus of mice after single per os dose; format: in vivo; details: female mouse-hybrids F1CBAxC57BI6, per os single-dosing administration (5 mg/kg of BW)
# Source text: Method is described in the article.
# [5] = Table 2, 0.1 mg/kg intramuscular injection
# [6] = Table 3, 0.2 mg/kg intramuscular injection
# [7] = Table 3, 0.5 mg/kg intramuscular injection
# [8] = Table 1, 0.5 mg/kg BW in olive oil, daily for 35 days
# [9] = Table 5, 5 mg/kg of body weight in olive oil, daily for 35 days
# [10] = Table 5, 0.05 mg/kg of body weight
compound,measurement,setting,value
COc1ccc2c(c1)O[C@H](C)[C@H]1[C@@H]2CC[C@]2(C)[C@@H](OC(C)=O)CCC[C@@H]12 [Compound XVI],Triene conjugates,[1]; control 0.209 ± 0.022,0.152 ± 0.022 conventional units/mg of phospholipids
same,Klein coefficient,[1]; control 0.70 ± 0.01,0.71 ± 0.05
same,Malonic dialdehyde,[1]; control 1.65 ± 0.14,1.80 ± 0.18 nmol/mg of phospholipids
same,Diene conjugates,[1]; control 12.2 ± 0.7,9.5 ± 1.0 nmol/mg of phospholipids
same,Schiff bases,[1]; control 129 ± 10,96 ± 6 conventional units/mg of phospholipids
"COc1ccc2c(c1)OC[C@H]1[C@@H]2CC[C@]2(C)C(=O)CCC[C@@H]12 [compound XII, 6-Oxa-D-homo-8α-estrone methyl ether]",Liver lipids Cholesterol,[2]; [5],2.69 ± 0.06 mg/g
same,Liver lipids Triglycerides,[2]; [5],5.21 ± 0.49 mg/g
same,Serum lipids Cholesterol,[2]; [5],1.68 ± 0.06 mmol/L
same,Serum lipids Triglycerides,[2]; [5],0.42 ± 0.05 mmol/L
same,Liver lipids Cholesterol,[2]; [6],2.69 ± 0.06 mg/g
same,Liver lipids Triglycerides,[2]; [6],3.72 ± 0.51 mg/g
same,Serum lipids Cholesterol,[2]; [6],1.04 ± 0.12 mmol/L
same,Serum lipids Triglycerides,[2]; [6],0.85 ± 0.05 mmol/L
same,Liver lipids Cholesterol,[2]; [7],2.31 ± 0.06 mg/g
same,Liver lipids Triglycerides,[2]; [7],3.17 ± 0.32 mg/g
same,Serum lipids Cholesterol,[2]; [7],0.85 ± 0.08 mmol/L
same,Serum lipids Triglycerides,[2]; [7],0.94 ± 0.05 mmol/L
same,Liver lipids Cholesterol,"[2]; Table 4, 0.2 mg/kg per os",3.45 ± 0.15 mg/g
same,Liver lipids Triglycerides,"[2]; Table 4, 0.2 mg/kg per os",7.1 ± 0.6 mg/g
same,Serum lipids Cholesterol,"[2]; Table 4, 0.2 mg/kg per os",0.99 ± 0.08 mmol/L
same,Serum lipids Triglycerides,"[2]; Table 4, 0.2 mg/kg per os",1.45 ± 0.14 mmol/L
"CC(=O)Oc1ccc2c(c1)OC[C@H]1[C@@H]2CC[C@]2(C)C(=O)CC[C@@H]12 [compound IV, 6-Oxa-8α-estrone acetate]",Change of body weight,[3]; [8],45.5 ± 3.8 g
same,Femur weight index (ash femur weight/wet femur weigh),[3]; [8],0.4219 ± 0.005 mg/mg
same,Serum cholesterol,[3]; [8],51.9 ± 1.7 mg/dL
same,Uterus weight index,[3]; [8],71.8 ± 3.6 mg/100 g BW
"COc1ccc2c(c1)O[C@H](C)[C@H]1[C@@H]2CC[C@]2(C)C(=O)CCC[C@@H]12 [compound XIV, 7β-Methyl-D-homo-6-oxa-8α-estrone methyl ether]",Change of body weight,[3]; [9],51 ± 4 g
same,Femur weight index (ash femur weight/wet femur weight),[3]; [9],0.392 ± 0.004
same,Serum cholesterol,[3]; [9],54.5 ± 2.8 mg/dL
same,Serum triglycerides,[3]; [9],62.2 ± 5.2 mg/dL
same,Uterus weight index,[3]; [9],34 ± 2 mg/100 g BW
C[C@H]1Oc2cc(O)ccc2[C@H]2CC[C@]3(C)C(=O)CCC[C@H]3[C@H]21 [compound XV],content of antibody-forming cells,[4],does not influence
same,mass and number of cells in spleen,[4],does not influence
same,mass and number of cells in the thymus,[4],does not influence
same,Change of body weight,[3]; [9],48 ± 4 g
same,Femur weight index (ash femur weight/wet femur weight),[3]; [9],0.390 ± 0.004
same,Serum cholesterol,[3]; [9],52.2 ± 2.6 mg/dL
same,Uterus weight index,[3]; [9],33 ± 3 mg/100 g BW
"C#C[C@]1(O)CC[C@H]2[C@@H]3CCc4cc(O)ccc4[C@H]3CC[C@@]21C [EE, 17α-Ethynylestradiol, reference compound]",Change of body weight,"[3]; Table 1, 0.1 mg/kg BW",23.0 ± 4.3 g
same,Serum cholesterol,"[3]; Table 1, 0.1 mg/kg BW",30.0 ± 1.7 mg/dL
same,Uterus weight index,"[3]; Table 1, 0.1 mg/kg BW",154.0 ± 7.8 mg/100 g BW
same,Change of body weight,[3]; [10],3 ± 4 g
same,Femur weight index (ash femur weight/wet femur weight),[3]; [10],0.436 ± 0.004
same,Serum cholesterol,[3]; [10],45.5 ± 2.1 mg/dL
same,Serum triglycerides,[3]; [10],129.8 ± 14.5 mg/dL
same,Uterus weight index,[3]; [10],164 ± 11 mg/100 g BW
